Species: Rattus norvegicus
Assay: Open TG-GATES - Regimen: Single
Type: toxicity, organism-based, Sprague-Dawley
Design: regimen Single, gender Male, age 6 weeks
Settings: in vivo, po, 45 mg/kg, route gavage, dose level High; for APTT / Bas / Eos / Fbg / Hb / Ht / Lym / MCH / MCHC / MCV / Mono / Neu / PT / Plat / RBC / Ret / WBC: tissue Blood; for KIDNEY_L / KIDNEY_R / KIDNEY_TOTAL: tissue Kidney; for LIVER: tissue Liver; for A/G / ALP / ALT / AST / BUN / CRE / Ca / Cl / DBIL / GLC / IP / K / LDH / Na / PL / RALB / TBIL / TC / TG / TP / gamma-GTP: tissue Plasma

## CC(=N)S [THIOACETAMIDE]
3 h
  TERMINAL_BW: 189.5 g
  APTT: 17.3 s
  Bas: 0%
  Eos: 0.6%
  Fbg: 232.5 mg/dL
  Hb: 13.5 g/dL
  Ht: 41%
  Lym: 71.2%
  MCH: 21.6 pg
  MCHC: 33%
  MCV: 65.4 fL
  Mono: 8.6%
  Neu: 20%
  PT: 12.4 s
  Plat: 115.5 x10_4/uL
  RBC: 627 x10_4/ul
  Ret: 9.5%
  WBC: 129.7 x10_2/uL
  KIDNEY_L: 0.8 g
  KIDNEY_R: 0.8 g
  KIDNEY_TOTAL: 1.7 g
  LIVER: 8.7 g
  A/G: 2
  ALP: 923 IU/L
  ALT: 36 IU/L
  AST: 73.6 IU/L
  BUN: 13.6 mg/dL
  CRE: 0.5 mg/dL
  Ca: 10.9 mg/dL
  Cl: 104.6 meq/L
  DBIL: 0 mg/dL
  GLC: 169.2 mg/dL
  IP: 9.7 mg/dL
  K: 4.4 meq/L
  LDH: 200.6 IU/L
  Na: 139.6 meq/L
  PL: 137.6 mg/dL
  RALB: 3.8 g/dL
  TBIL: 0.4 mg/dL
  TC: 84 mg/dL
  TG: 54.8 mg/dL
  TP: 5.6 g/dL
  gamma-GTP: 2 IU/L
6 h
  TERMINAL_BW: 187 g
  APTT: 17.2 s
  Bas: 0%
  Eos: 0.2%
  Fbg: 230.4 mg/dL
  Hb: 13.7 g/dL
  Ht: 41.3%
  Lym: 71%
  MCH: 21.8 pg
  MCHC: 33.1%
  MCV: 66 fL
  Mono: 6.2%
  Neu: 22.2%
  PT: 12.9 s
  Plat: 104.7 x10_4/uL
  RBC: 627.2 x10_4/ul
  Ret: 9.9%
  WBC: 118 x10_2/uL
  KIDNEY_L: 0.8 g
  KIDNEY_R: 0.8 g
  KIDNEY_TOTAL: 1.6 g
  LIVER: 8 g
  A/G: 1.9
  ALP: 836.6 IU/L
  ALT: 33.8 IU/L
  AST: 75.2 IU/L
  BUN: 10.2 mg/dL
  CRE: 0.6 mg/dL
  Ca: 10.4 mg/dL
  Cl: 104.4 meq/L
  DBIL: 0.024 mg/dL
  GLC: 162.4 mg/dL
  IP: 9.9 mg/dL
  K: 4.7 meq/L
  LDH: 155.4 IU/L
  Na: 138.2 meq/L
  PL: 129.8 mg/dL
  RALB: 3.6 g/dL
  TBIL: 0.4 mg/dL
  TC: 79.4 mg/dL
  TG: 34.8 mg/dL
  TP: 5.5 g/dL
  gamma-GTP: 1.8 IU/L
9 h
  TERMINAL_BW: 189.4 g
  APTT: 17 s
  Bas: 0%
  Eos: 0.6%
  Fbg: 224.4 mg/dL
  Hb: 13.1 g/dL
  Ht: 39.6%
  Lym: 71%
  MCH: 21.8 pg
  MCHC: 33%
  MCV: 66 fL
  Mono: 7.4%
  Neu: 21%
  PT: 14.1 s
  Plat: 100.8 x10_4/uL
  RBC: 600 x10_4/ul
  Ret: 10%
  WBC: 126.2 x10_2/uL
  KIDNEY_L: 0.8 g
  KIDNEY_R: 0.9 g
  KIDNEY_TOTAL: 1.7 g
  LIVER: 8 g
  A/G: 2
  ALP: 886 IU/L
  ALT: 41.2 IU/L
  AST: 93.2 IU/L
  BUN: 12.6 mg/dL
  CRE: 0.5 mg/dL
  Ca: 10.4 mg/dL
  Cl: 104.6 meq/L
  DBIL: 0.008 mg/dL
  GLC: 168.4 mg/dL
  IP: 10.4 mg/dL
  K: 4.4 meq/L
  LDH: 229.2 IU/L
  Na: 137.4 meq/L
  PL: 134.8 mg/dL
  RALB: 3.6 g/dL
  TBIL: 0.4 mg/dL
  TC: 84.8 mg/dL
  TG: 32.4 mg/dL
  TP: 5.4 g/dL
  gamma-GTP: 1.8 IU/L
24 h
  TERMINAL_BW: 186.6 g
  APTT: 21.2 s
  Bas: 0%
  Eos: 0.6%
  Fbg: 232 mg/dL
  Hb: 14.7 g/dL
  Ht: 44.9%
  Lym: 69.8%
  MCH: 21.2 pg
  MCHC: 32.8%
  MCV: 64.6 fL
  Mono: 1.8%
  Neu: 27.8%
  PT: 15.7 s
  Plat: 104.8 x10_4/uL
  RBC: 695.6 x10_4/ul
  Ret: 9%
  WBC: 91 x10_2/uL
  KIDNEY_L: 0.9 g
  KIDNEY_R: 0.9 g
  KIDNEY_TOTAL: 1.8 g
  LIVER: 9.3 g
  A/G: 2
  ALP: 1017.6 IU/L
  ALT: 137.2 IU/L
  AST: 713.8 IU/L
  BUN: 15.2 mg/dL
  CRE: 0.5 mg/dL
  Ca: 10.4 mg/dL
  Cl: 102.4 meq/L
  DBIL: 0.046 mg/dL
  GLC: 152 mg/dL
  IP: 8.5 mg/dL
  K: 4.7 meq/L
  LDH: 1117 IU/L
  Na: 135.8 meq/L
  PL: 142 mg/dL
  RALB: 3.8 g/dL
  TBIL: 0.3 mg/dL
  TC: 86.8 mg/dL
  TG: 64.6 mg/dL
  TP: 5.8 g/dL
  gamma-GTP: 1 IU/L

— ChEMBL document CHEMBL3885861, “Open TG-GATES”
